Measured values as given in patent US6737383B1, “Herbicidal oxadiazolidines” (priority 1999, dated 2004).

What was measured:
cocklebur = assay: Test B pre/postemergence cocklebur; type: in vivo, Xanthium strumarium
Outline: (§1)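 Response is a visual 0-to-10 score relative to untreated plants, where 0 means no effect and 10 means complete control, taken twelve to sixteen days after application. Treatments went onto soil at planting and onto foliage of 1- to 4-leaf plants, using a surfactant-containing non-phytotoxic solvent.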

corn = assay: Test B pre/postemergence corn; type: in vivo, Zea mays
Outline: as §1

duck salad = assay: Test B flood test duck salad; type: in vivo, Heteranthera limosa
Outline: (§2)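 Each value is a visual injury score relative to controls, with 10 meaning complete control and 0 no effect. Evaluation took place twelve to sixteen days after the 2-leaf-stage plants were treated and kept in the greenhouse.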

smallflower flatsedge = assay: Test B flood test smallflower flatsedge; type: in vivo, Cyperus difformis
Outline: as §2

velvetleaf = assay: Test B pre/postemergence velvetleaf; type: in vivo, Abutilon theophrasti
Outline: as §1

bedstraw = assay: Test B pre/postemergence bedstraw; type: in vivo, Galium aparine; conditions: Preemergence
Outline: as §1

purple nutsedge = assay: Test B pre/postemergence purple nutsedge; type: in vivo, Cyperus rotundus
Outline: as §1

sugar beet = assay: Test B pre/postemergence sugar beet; type: in vivo, Beta vulgaris
Outline: as §1

pigweed = assay: Test B pre/postemergence pigweed; type: in vivo, Amaranthus retroflexus
Outline: as §1

morningglory = assay: Test B pre/postemergence morningglory; type: in vivo, Ipomoea hederacea
Outline: as §1

wild oat = assay: Test B pre/postemergence wild oat; type: in vivo, Avena fatua
Outline: as §1

blackgrass = assay: Test B pre/postemergence blackgrass; type: in vivo, Alopecurus myosuroides
Outline: as §1

rape = assay: Test B pre/postemergence rape; type: in vivo, Brassica napus
Outline: as §1

crabgrass = assay: Test B pre/postemergence crabgrass; type: in vivo, Digitaria sanguinalis
Outline: as §1

surinam grass = assay: Test B pre/postemergence surinam grass; type: in vivo, Brachiaria decumbens
Outline: as §1

wheat = assay: Test B pre/postemergence wheat; type: in vivo, Triticum aestivum
Outline: as §1

[1] = Postemergence, Rate 62 g/ha, scale 0 to 10, 0 is no effect, 10 is complete control
[2] = Postemergence, Rate 125 g/ha, scale of 0 to 10 where 0 is no effect and 10 is complete control
[3] = Postemergence, Rate 250 g/ha, scale of 0 to 10, 0 is no effect, 10 is complete control
[4] = Preemergence, Rate 62 g/ha, scale of 0 to 10 where 0 is no effect and 10 is complete control
[5] = Preemergence, Rate 125 g/ha, scale of 0 to 10 where 0 is no effect and 10 is complete control
[6] = Preemergence, Rate 250 g/ha, scale 0 to 10 (0 no effect, 10 complete control)
[7] = Preemergence, Rate 500 g/ha, scale of 0 to 10 where 0 is no effect and 10 is complete control
[8] = Rate 500 g/ha, Postemergence, scale 0 to 10, 0 is no effect, 10 is complete control
[9] = Rate 62 g/ha, flood test species, Pre-emergence, visual evaluation after twelve to sixteen days
[10] = Rate 125 g/ha, under heading Pre-emergence, flood test species, visual evaluation after twelve to sixteen days
[11] = Rate 250 g/ha, Pre-emergence (flood test species), scale 0 to 10, 0 is no effect, 10 is complete control
[12] = Rate 500 g/ha, Pre-emergence section of Table B, 0 to 10 scale (0 no effect, 10 complete control)

With `C=C(Cn1c(=O)on(C(=O)N(c2ccccc2)C(C)C)c1=O)C(C)C` [Compound 649] the “Plant response rating, Cocklebur” value (cocklebur; [1]) was 0, the “Cocklebur plant response rating” value (cocklebur; [2]) was 0 and the “Cocklebur plant response rating” value (cocklebur; [3]) was 0. For the same molecule, the “Cocklebur plant response rating” value (cocklebur; [4]) was 0, the “Cocklebur plant response rating” value (cocklebur; [5]) was 0 and the “Plant response rating, Cocklebur” value (cocklebur; [6]) was 0. The “Plant response rating, Cocklebur” value (cocklebur; [7]) was 0, the “Cocklebur plant response rating” value (cocklebur; [8]) was 2 and the “Plant response rating, Corn” value (corn; [1]) was 0. The “Corn plant response rating” value (corn; [2]) was 0, the “Corn plant response rating” value (corn; [3]) was 0 and the “Corn plant response rating” value (corn; [4]) was 0. For the same molecule, the “Corn plant response rating” value (corn; [5]) was 0, the “Plant response rating, Corn” value (corn; [6]) was 0 and the “Plant response rating, Corn” value (corn; [7]) was 0. For the same molecule, the “Corn plant response rating” value (corn; [8]) was 0, the “Plant response rating, Ducksalad (0 to 10 scale, 0 is no effect, 10 is complete control)” value (duck salad; [9]) was 0 and the “Ducksalad plant response rating (0 to 10 scale, 0 is no effect, 10 is complete control)” value (duck salad; [10]) was 0. For the same molecule, the “Ducksalad plant response rating” value (duck salad; [11]) was 0, the “Ducksalad plant response rating” value (duck salad; [12]) was 0 and the “Plant response rating, S. Flatsedge (0 to 10 scale, 0 is no effect, 10 is complete control)” value (smallflower flatsedge; [9]) was 0. For the same molecule, the “S. Flatsedge plant response rating (0 to 10 scale, 0 is no effect, 10 is complete control)” value (smallflower flatsedge; [10]) was 0, the “S. Flatsedge plant response rating” value (smallflower flatsedge; [11]) was 0 and the “S. Flatsedge plant response rating” value (smallflower flatsedge; [12]) was 0. For the same molecule, the “Plant response rating, Velvetleaf” value (velvetleaf; [1]) was 0, the “Velvetleaf plant response rating” value (velvetleaf; [2]) was 0 and the “Velvetleaf plant response rating” value (velvetleaf; [4]) was 0. The “Velvetleaf plant response rating” value (velvetleaf; [5]) was 0, the “Plant response rating, Velvetleaf” value (velvetleaf; [6]) was 0 and the “Plant response rating, Velvetleaf” value (velvetleaf; [7]) was 0. For the same molecule, the “Velvetleaf plant response rating” value (velvetleaf; [8]) was 0, the “Bedstraw plant response rating” value (bedstraw; Rate 62 g/ha, scale of 0 to 10 where 0 is no effect and 10 is complete control) was 0 and the “Bedstraw plant response rating” value (bedstraw; Rate 125 g/ha, scale of 0 to 10 where 0 is no effect and 10 is complete control) was 0. The “Plant response rating, Bedstraw” value (bedstraw; Rate 250 g/ha, scale 0 to 10 (0 no effect, 10 complete control)) was 0, the “Plant response rating, Bedstraw” value (bedstraw; Rate 500 g/ha, scale of 0 to 10 where 0 is no effect and 10 is complete control) was 0 and the “Plant response rating, Nutsedge” value (purple nutsedge; [1]) was 0. The “Nutsedge plant response rating” value (purple nutsedge; [2]) was 0, the “Nutsedge plant response rating” value (purple nutsedge; [4]) was 0 and the “Nutsedge plant response rating” value (purple nutsedge; [5]) was 0. The “Plant response rating, Nutsedge” value (purple nutsedge; [6]) was 0, the “Plant response rating, Nutsedge” value (purple nutsedge; [7]) was 0 and the “Nutsedge plant response rating” value (purple nutsedge; [8]) was 0. The “Plant response rating, Sugarbeets” value (sugar beet; [1]) was 0, the “Sugarbeets plant response rating” value (sugar beet; [2]) was 0 and the “Sugarbeets plant response rating” value (sugar beet; [5]) was 0. For the same molecule, the “Plant response rating, Sugarbeets” value (sugar beet; [6]) was 0, the “Plant response rating, Sugarbeets” value (sugar beet; [7]) was 0 and the “Sugarbeets plant response rating” value (sugar beet; [8]) was 0. The “Plant response rating, Redroot pigweed” value (pigweed; [1]) was 0, the “Redroot pigweed plant response rating” value (pigweed; [2]) was 0 and the “Redroot pigweed plant response rating” value (pigweed; [4]) was 0. For the same molecule, the “Redroot pigweed plant response rating” value (pigweed; [5]) was 0, the “Plant response rating, Redroot pigweed” value (pigweed; [6]) was 0 and the “Plant response rating, Redroot pigweed” value (pigweed; [7]) was 0. The “Redroot pigweed plant response rating” value (pigweed; [8]) was 0, the “Plant response rating, Morningglory” value (morningglory; [1]) was 4 and the “Morningglory plant response rating” value (morningglory; [2]) was 7. For the same molecule, the “Morningglory plant response rating” value (morningglory; [3]) was 7, the “Morningglory plant response rating” value (morningglory; [4]) was 0 and the “Morningglory plant response rating” value (morningglory; [5]) was 0. The “Plant response rating, Morningglory” value (morningglory; [6]) was 0, the “Plant response rating, Morningglory” value (morningglory; [7]) was 0 and the “Morningglory plant response rating” value (morningglory; [8]) was 8. For the same molecule, the “Plant response rating, Wild oats” value (wild oat; [1]) was 0, the “Wild oats plant response rating” value (wild oat; [2]) was 0 and the “Wild oats plant response rating” value (wild oat; [4]) was 0. For the same molecule, the “Wild oats plant response rating” value (wild oat; [5]) was 0, the “Plant response rating, Wild oats” value (wild oat; [6]) was 0 and the “Plant response rating, Wild oats” value (wild oat; [7]) was 0. The “Wild oats plant response rating” value (wild oat; [8]) was 0, the “Plant response rating, Blackgrass” value (blackgrass; [1]) was 0 and the “Blackgrass plant response rating” value (blackgrass; [2]) was 0. For the same molecule, the “Blackgrass plant response rating” value (blackgrass; [3]) was 0, the “Blackgrass plant response rating” value (blackgrass; [4]) was 0 and the “Blackgrass plant response rating” value (blackgrass; [5]) was 0. For the same molecule, the “Plant response rating, Blackgrass” value (blackgrass; [6]) was 0, the “Plant response rating, Blackgrass” value (blackgrass; [7]) was 0 and the “Blackgrass plant response rating” value (blackgrass; [8]) was 0. The “Plant response rating, Rape” value (rape; [1]) was 0, the “Rape plant response rating” value (rape; [2]) was 0 and the “Rape plant response rating” value (rape; [4]) was 0. For the same molecule, the “Rape plant response rating” value (rape; [5]) was 0, the “Plant response rating, Rape” value (rape; [6]) was 0 and the “Plant response rating, Rape” value (rape; [7]) was 0. The “Rape plant response rating” value (rape; [8]) was 0, the “Plant response rating, Crabgrass” value (crabgrass; [1]) was 0 and the “Crabgrass plant response rating” value (crabgrass; [2]) was 2. For the same molecule, the “Crabgrass plant response rating” value (crabgrass; [4]) was 0, the “Crabgrass plant response rating” value (crabgrass; [5]) was 1 and the “Plant response rating, Crabgrass” value (crabgrass; [6]) was 5. For the same molecule, the “Plant response rating, Crabgrass” value (crabgrass; [7]) was 9, the “Plant response rating, B. signalgrass” value (surinam grass; [1]) was 0 and the “Plant response rating, B. signalgrass” value (surinam grass; [2]) was 0. For the same molecule, the “B. signalgrass plant response rating” value (surinam grass; [3]) was 0, the “B. signalgrass plant response rating” value (surinam grass; [4]) was 0 and the “B. signalgrass plant response rating” value (surinam grass; [5]) was 0. The “Plant response rating, B. signalgrass” value (surinam grass; [6]) was 0, the “Plant response rating, B. signalgrass” value (surinam grass; [7]) was 0 and the “B. signalgrass plant response rating” value (surinam grass; [8]) was 0. The “Plant response rating, Wheat” value (wheat; [1]) was 0, the “Wheat plant response rating” value (wheat; [2]) was 0 and the “Wheat plant response rating” value (wheat; [4]) was 0. The “Wheat plant response rating” value (wheat; [5]) was 0, the “Plant response rating, Wheat” value (wheat; [6]) was 0 and the “Plant response rating, Wheat” value (wheat; [7]) was 0. The “Wheat plant response rating” value (wheat; [8]) was 0.
